These results are taken from patent US20120225118A1, “COMPOSITIONS FOR DELIVERY OF INSOLUBLE AGENTS” (Latitude Pharmaceuticals Incorporated, priority 2009, published 2012).

Data set [1] can be described thus: Solubility in aqueous 0.2% SDS. The class given is physicochemical. Particulars: 37 °C, aqueous with cosolvent or surfactant or cyclodextrin, thermodynamic from solid. The protocol:
About 5.5 mg itraconazole or an amount of the preparations obtained according to Example 3 containing 5.5 mg itraconazole was placed in 500 mL aqueous solution of 0.2% SDS. The mixture was stirred at 37° C. for 24 hours. About 5 mL of the solution was taken and filtered through a 0.45 μm filter. The filtrate was analyzed by HPLC for concentration of itraconazole.

For data set [2] the following is noted: 25° C., cited from earlier work.

≈ marks a conversion by molar mass, not a printed value. Where two headings read alike, the source gives them in different places.

For the compound `CCC(C)n1ncn(-c2ccc(N3CCN(c4ccc(OCC5COC(Cn6cncn6)(c6ccc(Cl)cc6Cl)O5)cc4)CC3)cc2)c1=O` (stereo not drawn) [itraconazole], the concentration in solution in data set [1] (solubility at 24 h) came to 6.44 ± 0.08 µg/mL (≈ 9.13 µM). Turning to `CC(=O)Oc1ccccc1C(=O)O` [aspirin], the figures for the “volume of solvent required to dissolve 1 gram” value in data set [2] (ethanol) and in data set [2] (water) were 5 mL and 300 mL, respectively.
